Experimental data from patent US20100105652A1, “PURINES AS CYSTEINE PROTEASE INHIBITORS” (Glaxo Group Limited, priority 2007, published 2010).
Counter-ions that a name gives are not always drawn.

Assays:
Falcipain-2 = biological target: T1, Falcipain-2 (Plasmodium falciparum, UniProt Q8I6U4); assay: falcipain-2 enzymatic assay (fluorogenic substrate H-D-VLR-AFC, endpoint); type: biochemical; conditions: parasitic recombinant enzyme, pH 5.5, quenched after 60 minutes
T1 sequence (Q8I6U4 244-484): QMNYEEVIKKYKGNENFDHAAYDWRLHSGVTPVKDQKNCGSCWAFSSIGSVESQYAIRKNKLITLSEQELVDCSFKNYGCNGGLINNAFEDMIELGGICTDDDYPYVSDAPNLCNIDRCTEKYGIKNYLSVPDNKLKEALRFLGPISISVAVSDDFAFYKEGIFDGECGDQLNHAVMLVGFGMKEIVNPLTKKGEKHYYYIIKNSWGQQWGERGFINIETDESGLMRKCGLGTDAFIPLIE
Protocol: (§1) 1) Determination of Falcipain-2, Falcipain-3, Vivapain-2, and Cathepsin S Proteolytic Catalytic Activity
(§2) Assays for Falcipain-2, Falcipain-3, and Vivapain-2 are carried out with parasitic recombinant enzymes. Cathepsins S is carried out with human recombinant enzymes. Standard assay conditions for the determination of kinetic constants used a fluorogenic peptide substrate, typically H-D-VLR-AFC (Falcipain-2, Falcipain-3, Vivapain-2) or KQKLR-AMC (Cathepsin S) and are determined in 100 mM sodium acetate, pH 5.5, containing 10 mM DTT and 0.5 mM CHAPS (Falcipain-2, Falcipain-3, Vivapain-2), or 50 mM MES, pH 6.5, containing 0.5 mM CHAPS, 10 mM L-CYS, 5 mM EDTA (Cathepsin S). Stock substrate solutions are prepared at 20 mM in DMSO. The activity assays contained 30 uM substrate (Falcipain-2, Falcipain-3, Vivapain-2), and 30 uM substrate (Cathepsin S). All assays contained 1% DMSO. […] All assays are conducted at ambient temperature as end point assays being quenched after 60 minutes with the exception of Cathepsin S at 90 minutes, with 16.6 uM E-64 in 1% DMSO. Product formation (AFC or AMC) is determined from fluorescence (excitation at 405 nm; emission at 530 nm, AFC, or excitation at 360 nm; emission at 460 nm, AMC) monitored with a LJL Aquest (Molecular Devices) fluorescent plate reader. In the case of kinetic reads (used in mechanism of action studies), the reaction is not quenched but is read in the plate reader every 3 minutes for approximately 90 minutes. In addition, the mechanism of action studies for Falcipain-2 utilize Z-LR-AMC as the substrate. Product formation is determined from the fluorescence of AMC, measured with a LJL Acquest (Molecular Devices) fluorescent plate reader (excitation at 360 nm; emission at 460 nm).
(§3) Potential inhibitors are evaluated using the quenched read (endpoint) method. Assays are carried out in the presence of variable concentrations of test compound. Reactions are initiated by addition of enzyme and substrate to wells containing inhibitor stamped in 100% DMSO. For endpoint assays, the reaction is quenched with the addition of E64. Dose response data is fit to an IC50 curve with preset fitting tools according to equation 1:
(§4) y=a+(b−a)/(1+(10^X/10^C)^d) (1)
(§5) where y is the response at a particular inhibitor concentration x, a is the minimum response value, b is the maximum response value, c is the IC50, and d is the slope of the IC50 curve. Assuming the compound is a competitive inhibitor, the apparent KI can be calculated from IC50, as shown in equation 2: […]

Falcipain-3 = biological target: T2, Falcipain-3 (Plasmodium falciparum, UniProt Q8IIL0); assay: falcipain-3 enzymatic assay (fluorogenic substrate H-D-VLR-AFC, endpoint); type: biochemical; conditions: parasitic recombinant enzyme, pH 5.5, quenched after 60 minutes
T2 sequence (Q8IIL0 243-492): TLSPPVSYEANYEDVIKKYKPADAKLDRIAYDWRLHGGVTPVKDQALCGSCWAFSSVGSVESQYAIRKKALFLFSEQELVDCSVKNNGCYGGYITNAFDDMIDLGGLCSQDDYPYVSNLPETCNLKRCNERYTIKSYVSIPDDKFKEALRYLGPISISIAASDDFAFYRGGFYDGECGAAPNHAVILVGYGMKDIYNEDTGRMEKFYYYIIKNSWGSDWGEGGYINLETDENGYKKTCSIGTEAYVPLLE
Protocol: as §1, §2, §3, §4, §5

[1] = test system: Plasmodium falciparum parasite; assay: whole cell activity against the Plasmodium falciparum parasite; type: cell-based
Excerpt: Equation 7 describes the apparent KI for competitive compounds and was substituted into equations 5 and 6 to generate the relevant binding constants from the fitting routine. In addition, the initial and final velocities were fit to equation 3 to further define the binding mechanism and potency. A complete discussion of this kinetic treatment has been fully described (Morrison et al., Adv. Enzymol. Relat. Areas Mol. Biol., 1988, 61, 201). 2) Determination of Whole Cell Activity Against the Plasmodium falciparum Parasite Compounds can be evaluated for whole cell activity against the Plasmodium falciparum parasite according to the procedure described in Sijwali S, and Rosenthal P. J., (2004) Proceedings of the National Academy of Sciences of the United States of America (PNAS) 101(13), 4384-4389 (see in particular “Measurement of Parasite Growth rates and Inhibitor Sensitivity” on page 4385); IC50 values can be calculated as described in Singh A. and Rosenthal P. J., (2001) Antimicrobial Agents and Chemotherapy 45(3), 949-951 (see in particular page 950, first column); synchronised parasites can be prepared as described in Divo A. A. et al., (1985) Protozool. 32, 59-64.

Compound | IC50 (Falcipain-2) | IC50 (Falcipain-3) | IC50 [1]
CN1CCC(CN2CCN(Cc3ccc(C(=O)NN(CC4CCCC4)c4nc(C#N)nc5c4ncn5C)cc3)CC2)CC1 [Example 2, N′-(2-cyano-9-methyl-9H-purin-6-yl)-N′-(cyclopentylmethyl)-4-({4-[(1-methyl-4-piperidinyl)methyl]-1-piperazinyl}methyl)benzohydrazide trifluoroacetate] | 0.0025 to 0.015 µM | 0.015 to 0.15 µM | 0.015 to 0.15 µM
CN1CCCC(CN2CCN(Cc3ccc(C(=O)NN(CC4CCCC4)c4nc(C#N)nc5c4ncn5C)cc3)CC2)C1 (centres unmarked) [Example 3, N′-(2-cyano-9-methyl-9H-purin-6-yl)-N′-(cyclopentylmethyl)-4-({4-[(1-methyl-3-piperidinyl)methyl]-1-piperazinyl}methyl)benzohydrazide trifluoroacetate] | 0.0025 to 0.015 µM | – | 0.015 to 0.15 µM
CN1CCN(C2CCN(Cc3ccc(C(=O)NN(c4nc(C#N)nc5c4ncn5C)C4CCCC4)cc3)CC2)CC1 [Example 4, N′-(2-cyano-9-methyl-9H-purin-6-yl)-N′-cyclopentyl-4-({[4-(4-methyl-1-piperazinyl)-1-piperidinyl]methyl}benzohydrazide trifluoroacetate] | 0.0025 to 0.015 µM | 0.15 to 0.25 µM | 0.0025 to 0.015 µM
CN1CCN(C(=O)C2CCN(Cc3ccc(C(=O)NN(c4nc(C#N)nc5c4ncn5C)C4CCCC4)cc3)CC2)CC1 [Example 6, N′-(2-cyano-9-methyl-9H-purin-6-yl)-N′-cyclopentyl-4-({4-[(4-methyl-1-piperazinyl)carbonyl]-1-piperidinyl}methyl)benzohydrazide trifluoroacetate] | 0.0025 to 0.015 µM | 0.15 to 0.25 µM | 0.015 to 0.15 µM
Cn1cnc2c(N(NC(=O)c3ccc(CN4CC(N5CCCC5)C4)cc3)C3CCCC3)nc(C#N)nc21 [Example 7, N′-(2-cyano-9-methyl-9H-purin-6-yl)-N′-cyclopentyl-4-({[3-(1-pyrrolidinyl)-1-azetidinyl]methyl}benzohydrazide trifluoroacetate] | 0.0025 to 0.015 µM | 0.25 to 0.4 µM | 0.015 to 0.15 µM
CN1CCN(C2CCN(Cc3ccc(C(=O)NN(c4nc(C#N)nc5c4ncn5C)C4CCCCC4)cc3)CC2)CC1 [Example 8, N′N′-(2-cyano-9-methyl-9H-purin-6-yl)-N′-cyclohexyl-4-({[4-(4-methyl-1-piperazinyl)-1-piperidinyl]methyl}benzohydrazide trifluoroacetate] | 0.001 to 0.0025 µM | 0.015 to 0.15 µM | 0.0025 to 0.015 µM
CN1CCC(CN2CCN(Cc3ccc(C(=O)NN(c4nc(C#N)nc5c4ncn5C)C4CCCCC4)cc3)CC2)CC1 [Example 9, N′-(2-cyano-9-methyl-9H-purin-6-yl)-N′-cyclohexyl-4-({4-[(1-methyl-4-piperidinyl)methyl]-1-piperazinyl}methyl)-benzohydrazide trifluoroacetate] | 0.0025 to 0.015 µM | 0.015 to 0.15 µM | 0.0025 to 0.015 µM
Cn1cnc2c(N(NC(=O)c3ccc(CN4CC(N5CCCC5)C4)cc3)C3CCCCC3)nc(C#N)nc21 [Example 11, N′-(2-cyano-9-methyl-9H-purin-6-yl)-N′-cyclohexyl-4-({[3-(1-pyrrolidinyl)-1-azetidinyl]methyl}benzohydrazide trifluoroacetate] | 0.0025 to 0.015 µM | 0.015 to 0.15 µM | 0.015 to 0.15 µM
CN(C)CCCn1cnc2c(N(CC3CCCC3)NC(=O)OC(C)(C)C)nc(C#N)nc21 [Example 12, 1,1-dimethylethyl 2-{2-cyano-9-[3-(dimethylamino)propyl]-9H-purin-6-yl}-2-(cyclopentylmethyl)hydrazinecarboxylate trifluoroacetate] | 0.001 to 0.0025 µM | 0.015 to 0.15 µM | 0.015 to 0.15 µM
CN(C)CCn1cnc2c(N(CC3CCCC3)NC(=O)OC(C)(C)C)nc(C#N)nc21 [Example 13, 1,1-dimethylethyl 2-{2-cyano-9-[2-(dimethylamino)ethyl]-9H-purin-6-yl}-2-(cyclopentylmethyl)hydrazinecarboxylate trifluoroacetate] | ≤ 0.001 µM | 0.015 to 0.15 µM | 0.015 to 0.15 µM
CN(C)CCn1cnc2c(N(CC3CCCC3)NC(=O)c3ccc(CN4CCN(C)CC4)cc3)nc(C#N)nc21 [Example 14, N′-{2-cyano-9-[2-(dimethylamino)ethyl]-9H-purin-6-yl}-N′-(cyclopentylmethyl)-4-[(4-methyl-1-piperazinyl)methyl]benzohydrazide trifluoroacetate] | 0.0025 to 0.015 µM | 0.015 to 0.15 µM | 0.015 to 0.15 µM

Continued, values first:

IC50 (Falcipain-2) | IC50 (Falcipain-3) | IC50 [1] | Compound
0.0025 to 0.015 µM | 0.015 to 0.15 µM | 0.015 to 0.15 µM | CN1CCN(C2CCN(Cc3ccc(C(=O)NN(CC4CCCC4)c4nc(C#N)nc5c4ncn5C)cc3)CC2)CC1 [Example 1, N′-(2-cyano-9-methyl-9H-purin-6-yl)-N′-(cyclopentylmethyl)-4-({[4-(4-methyl-1-piperazinyl)-1-piperidinyl]methyl}benzohydrazide trifluoroacetate]
0.0025 to 0.015 µM | 0.25 to 0.4 µM | 0.0025 to 0.015 µM | CN1CCC(CN2CCN(Cc3ccc(C(=O)NN(c4nc(C#N)nc5c4ncn5C)C4CCCC4)cc3)CC2)CC1 [Example 5, N′-(2-cyano-9-methyl-9H-purin-6-yl)-N′-cyclopentyl-4-({4-[(1-methyl-4-piperidinyl)methyl]-1-piperazinyl}methyl)benzohydrazide trifluoroacetate]
0.0025 to 0.015 µM | 0.015 to 0.15 µM | 0.0025 to 0.015 µM | CN1CCN(C(=O)C2CCN(Cc3ccc(C(=O)NN(c4nc(C#N)nc5c4ncn5C)C4CCCCC4)cc3)CC2)CC1 [Example 10, N′-(2-cyano-9-methyl-9H-purin-6-yl)-N′-cyclohexyl-4-({4-[(4-methyl-1-piperazinyl)carbonyl]-1-piperidinyl}methyl)benzohydrazide trifluoroacetate]
0.0025 to 0.015 µM | 0.015 to 0.15 µM | 0.015 to 0.15 µM | CN(C)CCCn1cnc2c(N(NC(=O)OC(C)(C)C)C3CCCC3)nc(C#N)nc21 [Example 15, 1,1-dimethylethyl 2-{2-cyano-9-[3-(dimethylamino)propyl]-9H-purin-6-yl}-2-cyclopentylhydrazinecarboxylate trifluoroacetate]
0.0025 to 0.015 µM | 0.15 to 0.25 µM | 0.0025 to 0.015 µM | CN(C)CCCN(C(=O)OC(C)(C)C)N(CC1CCCC1)c1nc(C#N)nc2c1ncn2CCCN(C)C [Example 16, 1,1-dimethylethyl 2-{2-cyano-9-[3-(dimethylamino)propyl]-9H-purin-6-yl}-2-(cyclopentylmethyl)-1-[3-(dimethylamino)propyl]hydrazinecarboxylate trifluoroacetate]
0.001 to 0.0025 µM | 0.25 to 0.4 µM | 0.015 to 0.15 µM | CN(C)CCCn1cnc2c(N(NC(=O)c3ccc(CN4CCN(C)CC4)cc3)C3CCCC3)nc(C#N)nc21 [Example 17, N′-{2-cyano-9-[3-(dimethylamino)propyl]-9H-purin-6-yl}-N′-cyclo pentyl-4-[(4-methyl-1-piperazinyl)methyl]benzohydrazide trifluoroacetate]
